The numbers were not newly measured in patent US20220054404A1, “SUBCUTANEOUS ADMINISTRATION OF NANOPARTICLES COMPRISING AN MTOR INHIBITOR AND ALBUMIN FOR TREATMENT OF DISEASES” (Abraxis BioScience, LLC, priority 2019, published 2022), which cites them from elsewhere.

In the series the test system is ABCB1/ABCG2.

In the case of `COc1ccc(COc2cc3oc(=O)c4cc(C(C)O)ccc4c3cc2OC)cc1` (stereo not shown) [Palomid 529], the “Affinity for ABCB1/ABCG2” value is listed as “lacks affinity for ABCB1/ABCG2”.
